Results taken from patent publication US20220228112A1, “MEDIUM FOR CULTURING HEPATOCYTE, METHOD OF PRODUCING HEPATOCYTE, AND HEPATOCYTE” (FUJIFILM Corporation, priority 2019, published 2022).

Test system: human iPS cell-derived hepatocytes
Assay: P450-Glo CYP3A4 assay, CYP3A4 activity value per cell
Assay type: cell-based
Conditions: FIG. 1C; added to medium that does not contain FBS, EGF and A83-01; culture period of 1 week
Procedure: For the cell culture medium, to a medium obtained by mixing equal amounts of a DMEM/F12 basal medium and an RPMI 1640 basal medium, each of the components was added so that the concentration thereof was to be the following final concentration.
Further, to the above composition, the following components were added in combination to prepare culture media for various hepatocytes,
Using the above-described various media, human iPS cell-derived hepatocytes (FUJIFILM Wako Pure Chemical Corporation, Cat #: C1026) were seeded on a collagen-coated 96-well plate at 1×10^5 cells per well and cultured in an incubator at 37° C. and 5% carbon dioxide gas, and the medium was exchanged every 24 hours. The luminescence intensity by a P450-Glo CYP3A4 assay (Promega Corporation) was measured by using an EnSpire multimode plate reader (PerkinElmer, Inc.) and corrected by the number of cells in the well to calculate the CYP3A4 activity value per cell in the culture period of 1 week.

NC(=O)c1cccnc1 [nicotinamide]
effect on function of hepatocytes (CYP3A4 activity per cell): positive factors for improving the function of hepatocytes
